Results taken from patent US11812753B2, “Solvent compositions promoting plant growth” (priority 2020, dated 2023).
Where two headings read alike, the source gives them in different places. Each block holds one compound with its values, some of them ahead of it.

Legend:
[1] = from SDS of each solvent, cited from earlier work
[2] = Viscosity of solvent compositions (modular compact rheometer); type: physicochemical; details: solvent mixed with 0.1 wt % BHT and 4x PGR composition; 25° C.
Protocol: (§1) Propylene glycol was used as a control. The evaluated solvents, along with the mass of each PGR component and BHT, are shown below in Table 4. The density and viscosity of the solvent compositions were then determined. The density measurements were obtained using a DMA™ 4500, which was calibrated using 20° C. DI water. Viscosity was determined using a modular compact rheometer. Viscosity levels were measured at 25° C.

[3] = Two-week stability test of solvent / Warden CX mixtures (viscosity, density); type: physicochemical; details: mixture with Warden CX; for Post: Density / Post: Viscosity: after two weeks at 54° C., 4° C. and/or −10° C.; for Pre: Viscosity: before two-week stability test
Protocol: The same seven solvent compositions were then evaluated for their compatibility with Warden® CX, which is a combination of fungicide and insecticide (containing a proprietary solvent) formulated for soybean seed treatment and sold by Winfield® United. Specifically, 0.5 fl. oz./cwt. of each experimental solvent was added to 50 mL of Warden® CX. […] The mixtures were then evaluated for stability by placing the samples at 54° C., 4° C. and/or at −10° C. for a two-week period. Viscosity levels were measured before and after the two-week stability test, along with the post-test density levels, and the results shown below in Table 6.

[4] = Active ingredient loading of PGR components in solvent compositions by HPLC; type: physicochemical
Excerpt: To understand if changing the active component loading rate would impact the biological performance of the PGR compositions, two solvent compositions, methoxy propanol and tetrahydrofuryl alcohol, were mixed with various PGR compositions (4×) selected for their favorable solubility properties, curing properties, and compatibility with Rhizobia. Propylene glycol was again included as a control sample, and each composition was mixed with BHT (4×). Citric acid was excluded from all samples. The weight percentage of each PGR component mixed with each solvent composition is shown below in Table 7.
The HPLC was performed using an Agilent 1260 device with a diode-array detector for active component quantification.
[…]. As shown, the deviation was less than 1% for each composition.

[5] = Density of solvent compositions (DMA 4500); type: physicochemical; details: solvent mixed with 0.1 wt % BHT and 4x PGR composition
Protocol: as §1

Compound: CC(=O)OCC(COC(C)=O)OC(C)=O [Glyceryl triacetate]
- Boiling Point [1]: 259 C. °
- Density [1]: 1.158 g/mL
- Flash Point [1]: 148 C. °
- Solubility [1]: Soluble
- Solubility ([1]; listed as glyceryl triacetate): soluble

Compound: CCCCC(CC)COC(=O)C(C)O (centres unmarked) [Lactic acid, 2-ethylhexyl ester]
- Boiling Point [1]: 122 C. °
- Density [1]: 1.2 g/mL

Compound: CC(=O)OCCCCCCC=O [Oxo-heptyl acetate]
- Boiling Point [1]: 192 C. °
- Density [1]: 0.886 g/mL
- Flash Point [1]: 43 C. °
- Solubility [1]: Slightly

- Viscosity [2]: 7.7338 cPa
- Post: Density [3]: 1.0486 g/mL
- Post: Viscosity [3]: 45.06 cPa
- Pre: Viscosity [3]: 112.48 cPa
Compound: CCCCOCCOCCO [Diethylene glycol butyl ether]
- Boiling Point [1]: 228 C. °
- Density [1]: 0.953 g/mL
- Flash Point [1]: 99 C. °
- Solubility [1]: Miscible

Compound: COCC(C)O (centres unmarked) [1-methoxy-2-propanol]
- Boiling Point [1]: 118 C. °
- Density [1]: 0.916 g/mL
- Flash Point [1]: 34 C. °
- Aux. by HPLC ([4]; 1st composition of Table 7, auxin added 0.6596%): 0.674%
- Cyt. by HPLC ([4]; 1st composition of Table 7, cytokinin added 0.0614%): 0.072%
- Gib. by HPLC ([4]; 1st composition of Table 7, gibberellin added 0.0460%): 0.046%
- Aux. by HPLC ([4]; 2nd composition of Table 7, auxin added 0.6136%): 0.630%
- Cyt. by HPLC ([4]; 2nd composition of Table 7, cytokinin added 0.1074%): 0.126%
- Gib. by HPLC ([4]; 2nd composition of Table 7, gibberellin added 0.0460%): 0.045%
- Aux. by HPLC ([4]; 3rd composition of Table 7, auxin added 0.5215%): 0.531%
- Cyt. by HPLC ([4]; 3rd composition of Table 7, cytokinin added 0.1534%): 0.178%
- Gib. by HPLC ([4]; 3rd composition of Table 7, gibberellin added 0.0920%): 0.088%
- Aux. by HPLC ([4]; 4th composition of Table 7, auxin added 0.4985%): 0.502%
- Cyt. by HPLC ([4]; 4th composition of Table 7, cytokinin added 0.1994%): 0.235%
- Gib. by HPLC ([4]; 4th composition of Table 7, gibberellin added 0.0690%): 0.069%
- Aux. by HPLC ([4]; 5th composition of Table 7, auxin added 0.5675%): 0.579%
- Cyt. by HPLC ([4]; 5th composition of Table 7, cytokinin added 0.1074%): 0.130%
- Gib. by HPLC ([4]; 5th composition of Table 7, gibberellin added 0.0920%): 0.089%
- change of viscosity over the two-week period [3]: decreasing the most
- Post: Density [3]: 1.0440 g/mL
- Post: Viscosity [3]: 106.18 cPa
- Pre: Viscosity [3]: 1764.63 cPa

Compound: Ethyl hexanol
- Boiling Point [1]: 185 C. °
- Density [1]: 0.833 g/mL
- Flash Point [1]: 75 C. °

Compound: CCCCOCCO [Ethylene glycol butyl ether, 2-butoxyl ethanol]
- Boiling Point [1]: 171 C. °
- Density [1]: 0.902 g/mL
- Flash Point [1]: 67 C. °
- Post: Density [3]: 1.0263 g/mL
- Post: Viscosity [3]: 69.69 cPa
- Pre: Viscosity [3]: 138.49 cPa

- Viscosity [2]: 5.0736 cPa
- Post: Density [3]: 1.1067 g/mL
- Post: Viscosity [3]: 387.57 cPa
- Pre: Viscosity [3]: 901.94 cPa
Compound: CCCCOC(=O)C(C)O (centres unmarked) [Butyl lactate]
- Boiling Point [1]: 186 C. °
- Density [1]: 0.984 g/mL
- Flash Point [1]: 69 C. °
- Solubility [1]: Slightly

- Viscosity [2]: 5.4046 cPa
- Aux. by HPLC ([4]; 6th composition of Table 7, auxin added 0.4958%): 0.497%
- Cyt. by HPLC ([4]; 6th composition of Table 7, cytokinin added 0.094%): 0.108%
- Gib. by HPLC ([4]; 6th composition of Table 7, gibberellin added 0.0804%): 0.081%
- Density [5]: 1.0548 g/mL
- Post: Density [3]: 1.0825 g/mL
- Post: Viscosity [3]: 150.59 cPa
- Pre: Viscosity [3]: 962.75 cPa
Compound: OCC1CCCO1 (centres unmarked) [Tetrahydrofurfyl Alcohol]
- Boiling Point [1]: 178 C. °
- Density [1]: 1.054 g/mL
- Flash Point [1]: 75 C. °
- Solubility [1]: Miscible

Compound: CCOC(C)=O [Ethyl acetate]
- Boiling Point [1]: 77 C. °
- Flash Point [1]: −4.4 C. °
- Solubility [1]: Miscible

Compound: CCCCCOC(C)=O [Amyl Acetate]
- Boiling Point [1]: 149 C. °
- Density [1]: 0.87 g/mL
- Flash Point [1]: 40 C. °
- Solubility [1]: Insoluble
- Viscosity [1]: 1.58 cP

Compound: CC(O)CO (centres unmarked) [Propylene Glycol, reference compound]
- Boiling Point [1]: 205 C. °
- Density [1]: 1.12 g/mL
- Flash Point [1]: 138 C. °
- Solubility [1]: Soluble
- Solubility ([1]; listed as propylene glycol): soluble
